Data published in EP0419081A2, “Method for protein binding enzyme complementation assays” (MICROGENICS CORPORATION, priority 1989, dated 1991).
Where two headings read alike, the source gives them in different places.

Columns and labels:
FBP = molecular target: T1, FBP (Bos taurus, UniProt P02702); assay: Folate dose response; type: biochemical; details: for 5′- 9′: rate OD₄₂₀ 5 to 9 min, FBP 1:1000, ED14-folate #34
T1 construct: purchased Scripps
Method: The following buffer systems and reagents were used and will be abbreviated as stated below: • 1. Sample buffer; 100 mM sodium phosphate, 20 mM sodium azide and 0.2% BSA. • 2. Assay buffer pH 7.0; 10 mM ethylene glycol tetraacetic acid, 2 mM magnesium acetate, 20 mM sodium azide, 150 mM sodium phosphate, 100 mM potassium phosphate, 0.05% Tween 20, 0.05 mM dithiothreitol, adjusted to pH 7.0. • 3. EA; enzyme acceptor • 4. ED; enzyme donor • 5. FBP Scripps; folate binding protein from Scripps 2.25 mg/ml stock • 6. CPRG; chlorophenol red β-D galactopyranoside • 7. ONPG: 2-nitrophenol β-D galactopyranoside
A folate dose response was elicited as follows. The following reagents were prepared; EA at a concentration of 3750 nM in Assay buffer p8 7.0, ED14-folate (fraction #34) at a concentration of 26.66 nM in Assay/ONPG buffer pH 7.0, FBP at a dilution of 1:1000 in sample buffer and folic acid standards at 0, 2.5, 5.0, 10.0 and 20.0 ng/ml in sample buffer. […] Rates were calculated by subtracting the OD₄₂₀ at 5 min from the OD₄₂₀ at 9 min.

EA23 = tested on: EA23
Method: This example illustrates an immunoassay for thyroxine as analyte using H6-thyroxine conjugate as enzyme-donor, EA23 as enzyme-acceptor, anti-thyroxine antibody and a series of concentrations of thyroxine.
Reagents for the assay were prepared as follows: L-thyroxine standard: 2.6 mg L-thyroxine (Sigma Chemical, St. Louis, MO) was dissolved in 200 µl absolute ethanol and 800 µl 0.15M NaHCO₃ added and the mixture stored at 25°C. Two fold dilutions of thyroxine were prepared in ethanol: 0.15M NaHCO₃ (1:4). L-thyroxine antibody: Antisera to thyroxine (T4) was purchased from Western Chemical Research Corp., Denver, CO. Several lots were tested for titer and an equilibrium constant determined in a radio-immunoassay with IgM Sorb (Enzyme Center, Malden, MA). […] EA23 acceptor-enzyme: 6.3X10-⁷M in storage buffer. Substrate: o-nitrophenyl-β-D-galactopyranoside (ONPG) was dissolved in 2.5 X Z buffer to a final concentration 10 mg/ml solution.
The assay was performed in microtiter plates (Dynatech Cat. #001-012-9200 American Scientific Products, Sunnyvale, CA) and read on a Titertak Multiscan microtiter plate reader fitted with a 414 nm filter (Flow Laboratories, Rockville, MO). To each well was added 100 µl of PM2 buffer containing 0.05% Tween 20 (polyoxyethylene sorbitan monolaurate) (Sigma Chemical Co., St. Louis, MO). To each well was added sequentially 2.5 µl H6-thyroxine conjugate, 2.5 µl of anti-thyroxine antibody, 2.5 µl of the thyroxine standards and 40 µl of EA23.

[1] = tested on: analyte specific antiserum; assay: Immunopurity by precipitation of the enzyme donor conjugate with antibody; type: binding; details: % of ED conjugate activity which can be removed by analyte specific antiserum
Method: Immunopurity was determined by precipitation of the enzyme donor conjugate with anti-T4 antibody TgG Sorbheads. The ED is incubated with primary antibody at room temperature for 15 min on a rocker shaker. Secondary antibody is added and incubation continued for 15 min. The suspension is centrifuged and an aliquot of the supernatant is saved for the assay. The above cycle is repeated on the remaining supernatant for a total of five cycles. […] The ED concentration during incubation is 20 nM. Assay concentrations are EA 500 nM; ED, 4 nM; and ONPG, 1mg/ml. Immunopurity is expressed as percent of ED activity precipitable by primary antibody.

EA = assay: Equilibrium specific activity; type: biochemical; details: ED and EA incubated together for 18 hours
[2] = tested on: anti-T4 antibody (T4-pool 393A); assay: Immunochemical testing on the Encore, T4 conjugates; type: biochemical
Method: The immunochemical testing was performed on the Encore. […] The ligand concentrations employed are indicated in the legend to the table. The ED and antibody were preincubated on the rotor for 15 min at 37°C. All antibody concentrations were assayed in duplicate. No correction was made for variations of total protein in the assays.

anti-T4 antibody = assay: Affinity constant by ED titration, Scatchard plot, T4 conjugates; type: binding; details: ED titration against fixed anti-T4 Ab, no secondary antibody
Method: The Ka was determined as follows: To determine the affinity constant of an antibody for an experimental ED conjugate, an ED titration against a fixed antibody is carried out. Antibody binding to the conjugated ED is monitored by inhibition of formation of active enzyme as indicated by a decrease in chromogenic substrate turnover. The resulting data is plotted in a Scatchard format (Bound/Free vs. [Bound]). The slope of the line generated is equal to ∼KA in L/mole.

T1 sequence (P02702 20-234): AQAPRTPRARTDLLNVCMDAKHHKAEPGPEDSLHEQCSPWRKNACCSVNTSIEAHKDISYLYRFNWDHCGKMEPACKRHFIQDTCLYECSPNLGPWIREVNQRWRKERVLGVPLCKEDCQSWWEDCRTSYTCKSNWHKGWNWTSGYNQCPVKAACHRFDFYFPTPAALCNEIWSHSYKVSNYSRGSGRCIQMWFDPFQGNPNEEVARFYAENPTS

| % Mod (FBP; folic acid standard 5.0 ng/ml) [%] | Net (FBP; folic acid standard 5.0 ng/ml) | 5′- 9′ (FBP; folic acid standard 5.0 ng/ml) | % Mod (FBP; folic acid standard 10.0 ng/ml) [%] | Net (FBP; folic acid standard 10.0 ng/ml) | 5′- 9′ (FBP; folic acid standard 10.0 ng/ml) | % Mod (FBP; folic acid standard 20.0 ng/ml) [%] | Net (FBP; folic acid standard 20.0 ng/ml) | 5′- 9′ (FBP; folic acid standard 20.0 ng/ml) | Compound | OD₄₁₅ (EA23; Well 2: ED₄-T4 2.5 µl only, no EA) | OD₄₁₅ (EA23; Well 3: ED₄-T4 2.5 µl, EA 40 µl) | OD₄₁₅ (EA23; Well 4: ED₄-T4 2.5 µl, Antibody 2.5 µl, EA 40 µl) | OD₄₁₅ (EA23; Well 5: ED₄-T4 2.5 µl, Antibody 2.5 µl, Thyroxine 6.25 µg/µl, EA 40 µl) | OD₄₁₅ (EA23; Well 6: ED₄-T4 2.5 µl, Antibody 2.5 µl, Thyroxine 12.5 µg/µl, EA 40 µl) | OD₄₁₅ (EA23; Well 7: ED₄-T4 2.5 µl, Antibody 2.5 µl, Thyroxine 25 µg/µl, EA 40 µl) | Immuno-Purity [1] [%] | Specific Activity (u/mg) (% ED4-T4) Equilibrium (EA) [%] | Immunochemical Testing %I 1/2Sat ([2]; T4-pool 393A at 1:12,000, ED titrated until one-half of Ab binding sites saturated, no secondary antibody) [%] | Immunochemical Testing (0.125 nM Sys [ED]) ([2]; maximum amount of complementation inhibition, ED system concentration 0.125 nM, Ab constant) [%] | Ka (L/mole) x10-9 (anti-T4 antibody) [L/mole x10-9] |
| --- | --- | --- | --- | --- | --- | --- | --- | --- | --- | --- | --- | --- | --- | --- | --- | --- | --- | --- | --- | --- |
| 13.4 | 52 | 388.5 | 24.1 | 107 | 443.5 | 40.0 | 2255 | 562 | Nc1nc2ncc(CNc3ccc(C(=O)N[C@@H](CCC(=O)O)C(=O)O)cc3)nc2c(=O)[nH]1 [folic acid] | – | – | – | – | – | – | – | – | – | – | – |
| – | – | – | – | – | – | – | – | – | m-maleimide-benzoyl-L-Thyroxine-ED₄ conjugate [ED4T4] | 0.001 | 0.595 | 0.300 | 0.312 | 0.320 | 0.364 | 96 | 100 | 34 | 47 | 1.97 |
